The text below walks through data of patent US12503719B2, “Metabolomic characterization of microorganisms” (priority 2019, dated 2025).

Values after ≈ are worked out from the molar mass of the structure shown.

One experiment has as its system C. albicans. The conditions noted are these: published CLSI MIC used as test concentration; antifungals tested for C. albicans; cited from earlier work.
Experiment [1] has as its system E. coli. Nature of the experiment: MAST: succinate production after 4 h incubation with antimicrobial. Format: cell-based, Escherichia coli. Conditions: AMP and SXT resistant E. coli strain, antibiotics at MIC.
From the text: All chemicals were obtained from Sigma-Aldrich (St. Louis, Mo. USA), VWR (Radnor, Pa. USA), or Fisher Scientific (Waltham, Mass. USA) unless otherwise specified. Clinical isolates used in this study were obtained from bloodstream infected patients. All strains were first identified and tested for antibiotic susceptibility using a clinical laboratory testing pipeline (plating on selective medium for single colony isolation, Gram staining, MALDI-TOF-MS species identification, and sub-culturing for purity and inoculation onto VITEK 2 (bioMerieux) antimicrobial susceptibility panels), and subsequently frozen as cryostocks. With the exception of S. pneumoniae, all strains were routinely grown in Mueller Hinton medium (BD Difco, Mississauga, ON, Canada). […] Supernatant was then diluted 1:10 with 50% LC-MS grade methanol and analyzed using UHPLC-MS. […]
To assess MAST as a potential clinical tool, three patient isolates for each target pathogen (2 each for S. aureus and P. aeruginosa) were analyzed. […] Both bactericidal (penicillins, cephalosporins, carbapenems, glycopeptides, aminoglycosides and fluoroquinolones) and bacteriostatic (macrolides, tetracyclines, and trimethoprim-sulfamethoxazole) antibiotic classes were evaluated.
The conditions of experiment [2]: published CLSI MIC used as test concentration; species not given; cited from earlier work.
A further experiment relates to S. pneumoniae. Conditions: published CLSI MIC used as test concentration; cited from earlier work.
The test system of another experiment is K. pneumoniae. The conditions noted are these: published CLSI MIC used as test concentration; cited from earlier work.
For experiment [3], the system named is E. coli. Conditions: published CLSI MIC used as test concentration; cited from earlier work.
A further experiment deals with S. aureus. The conditions noted are these: published CLSI MIC used as test concentration; cited from earlier work.
For a further experiment, the system named is KP. Nature of the experiment: MAST: hypoxanthine production after 4 h incubation with antimicrobial. It counts as cell-based, Klebsiella pneumoniae. The source says:
All chemicals were obtained from Sigma-Aldrich (St. Louis, Mo. USA), VWR (Radnor, Pa. USA), or Fisher Scientific (Waltham, Mass. USA) unless otherwise specified. Clinical isolates used in this study were obtained from bloodstream infected patients. All strains were first identified and tested for antibiotic susceptibility using a clinical laboratory testing pipeline (plating on selective medium for single colony isolation, Gram staining, MALDI-TOF-MS species identification, and sub-culturing for purity and inoculation onto VITEK 2 (bioMerieux) antimicrobial susceptibility panels), and subsequently frozen as cryostocks. With the exception of S. pneumoniae, all strains were routinely grown in Mueller Hinton medium (BD Difco, Mississauga, ON, Canada). S. pneumoniae isolates were first revived on trypticase soy agar plates containing sheep blood (BD BBL, Mississauga, ON, Canada) and then sub-cultured into Mueller Hinton medium supplemented with catalase (1000 U/mL). For biomarker discovery and validation of biomarkers using MPAs, exponential phase cultures were used to seed 96 well culture plates (Corning, N.Y., N.Y. USA) containing Mueller Hinton medium with 10% donated human blood to a 0.5 McFarland (OD600˜0.07 or ˜1.5×10^8 CFU/mL). […] Supernatant was then diluted 1:10 with 50% LC-MS grade methanol and analyzed using UHPLC-MS. […]

A further experiment concerns P. aeruginosa. The conditions noted are these: published CLSI MIC used as test concentration; cited from earlier work.
Another experiment has as its system E. faecalis. The conditions noted are these: published CLSI MIC used as test concentration; cited from earlier work.

Consider `Nc1nc(=O)[nH]cc1F` [5FC, 5-flucytosine], for which, in the experiment with C. albicans, the minimum inhibitory concentrations was 0.5 µg/mL (≈ 3.87 µM).

As to `C[C@@H]1[C@H](O)[C@@H](C)/C=C/C=C/C=C/C=C/C=C/C=C/C=C/[C@H](O[C@@H]2O[C@H](C)[C@@H](O)[C@H](N)[C@@H]2O)C[C@@H]2O[C@](O)(C[C@@H](O)C[C@@H](O)[C@H](O)CC[C@@H](O)C[C@@H](O)CC(=O)O[C@H]1C)C[C@H](O)[C@H]2C(=O)O` [AMB, amphotericin B], the minimum inhibitory concentrations in the experiment with C. albicans is 2 µg/mL (≈ 2.16 µM).

Turning to `CC1(C)S[C@@H]2[C@H](NC(=O)[C@H](N)c3ccccc3)C(=O)N2[C@H]1C(=O)O` [AMP, ampicillin], the “succinate production in presence of antibiotic versus absence of antibiotics” value in the experiment on E. coli [1] is recorded as “comparable”. In addition, the minimum inhibitory concentrations in experiment [2] was 8 µg/mL (≈ 22.9 µM).

Turning to `CC(C)(O/N=C(\C(=O)N[C@@H]1C(=O)N2C(C(=O)[O-])=C(C[n+]3ccccc3)CS[C@H]12)c1csc(N)n1)C(=O)O` [CAZ, ceftazidime], the minimum inhibitory concentrations in experiment [2] was 8 µg/mL (≈ 14.6 µM).

`Cc1nnc(SCC2=C(C(=O)O)N3C(=O)[C@@H](NC(=O)Cn4cnnn4)[C@H]3SC2)s1` [CFX, cefazolin]: the minimum inhibitory concentrations in experiment [2] was 4 µg/mL (≈ 8.8 µM).

Consider `CO/N=C(\C(=O)N[C@@H]1C(=O)N2C(C(=O)O)=C(CSc3nc(=O)c(=O)[nH]n3C)CS[C@H]12)c1csc(N)n1` [CRO, Ceftriaxone], for which the minimum inhibitory concentrations was 0.5 µg/mL (≈ 0.902 µM) with S. pneumoniae, 1 µg/mL (≈ 1.8 µM) with K. pneumoniae and 1 µg/mL (≈ 1.8 µM) with E. coli [3].

For `CC[C@H]1OC(=O)[C@H](C)[C@@H](O[C@H]2C[C@@](C)(OC)[C@@H](O)[C@H](C)O2)[C@H](C)[C@@H](O[C@@H]2O[C@H](C)C[C@H](N(C)C)[C@H]2O)[C@](C)(O)C[C@@H](C)C(=O)[C@H](C)[C@@H](O)[C@]1(C)O` [ERY, erythromycin], the results for the minimum inhibitory concentrations in the experiment on S. pneumoniae and with S. aureus were 0.25 µg/mL (≈ 0.341 µM) and 0.5 µg/mL (≈ 0.681 µM), respectively.

In the case of `OC(Cn1cncn1)(Cn1cncn1)c1ccc(F)cc1F` [FLC, fluconozole], the minimum inhibitory concentrations in the experiment on C. albicans is 2 µg/mL (≈ 6.53 µM).

As for `C[C@@H](O)[C@H]1C(=O)N2C(C(=O)O)=C(S[C@@H]3CN[C@H](C(=O)N(C)C)C3)[C@H](C)[C@H]12` [MEM, meropenem], the hypoxanthine production entry in the experiment on KP (drug sensitive strains, range of meropenem concentrations) was “incremental reduction in hypoxanthine production proportional to meropenem concentrations”; in the experiment on KP (resistant strains, clinically-relevant antibiotic concentrations), “remain unaffected”. Further, the minimum inhibitory concentrations is 0.25 µg/mL (≈ 0.652 µM) in the experiment with S. pneumoniae, 1 µg/mL (≈ 2.61 µM) in the experiment with K. pneumoniae, 1 µg/mL (≈ 2.61 µM) in the experiment with E. coli [3] and 2 µg/mL (≈ 5.22 µM) in the experiment on P. aeruginosa.

With `Cc1onc(-c2ccccc2)c1C(=O)N[C@@H]1C(=O)N2[C@@H]1SC(C)(C)[C@@H]2C(=O)O` [OXA, oxacillin], the minimum inhibitory concentrations in experiment [2] was 2 µg/mL (≈ 4.98 µM).

In the case of `CN[C@H](CC(C)C)C(=O)N[C@H]1C(=O)N[C@@H](CC(N)=O)C(=O)N[C@H]2C(=O)N[C@H]3C(=O)N[C@H](C(=O)N[C@H](C(=O)O)c4cc(O)cc(O)c4-c4cc3ccc4O)[C@H](O)c3ccc(c(Cl)c3)Oc3cc2cc(c3O[C@@H]2O[C@H](CO)[C@@H](O)[C@H](O)[C@H]2O[C@H]2C[C@](C)(N)[C@H](O)[C@H](C)O2)Oc2ccc(cc2Cl)[C@H]1O` [VAN, vancomycin], the minimum inhibitory concentrations in the experiment with S. pneumoniae was 1 µg/mL (≈ 0.69 µM); in the experiment with E. faecalis it was 4 µg/mL (≈ 2.76 µM); in the experiment on S. aureus, 2 µg/mL (≈ 1.38 µM).

Turning to gentamicin, the minimum inhibitory concentrations in the experiment on E. faecalis is 500 µg/mL; in [2], 4 µg/mL.

As for penicillin, in experiment [2], the minimum inhibitory concentrations is 0.06 µg/mL.
